Consider 26 compounds from US12331068B2, “Compositions and methods for inhibiting CD73” (Peloton Therapeutics, Inc., priority 2018, dated 2025).

pIC50: −log10 of the molar value. Like-named read-outs stand apart in the source and are kept apart here. Some results are limits rather than exact numbers.

In experiment [1] the target is T1, Human CD73 (Homo sapiens, UniProt P21589).
T1 construct: purchased R&D Systems; host or cells: CHO cells
T1 sequence (P21589 27-549): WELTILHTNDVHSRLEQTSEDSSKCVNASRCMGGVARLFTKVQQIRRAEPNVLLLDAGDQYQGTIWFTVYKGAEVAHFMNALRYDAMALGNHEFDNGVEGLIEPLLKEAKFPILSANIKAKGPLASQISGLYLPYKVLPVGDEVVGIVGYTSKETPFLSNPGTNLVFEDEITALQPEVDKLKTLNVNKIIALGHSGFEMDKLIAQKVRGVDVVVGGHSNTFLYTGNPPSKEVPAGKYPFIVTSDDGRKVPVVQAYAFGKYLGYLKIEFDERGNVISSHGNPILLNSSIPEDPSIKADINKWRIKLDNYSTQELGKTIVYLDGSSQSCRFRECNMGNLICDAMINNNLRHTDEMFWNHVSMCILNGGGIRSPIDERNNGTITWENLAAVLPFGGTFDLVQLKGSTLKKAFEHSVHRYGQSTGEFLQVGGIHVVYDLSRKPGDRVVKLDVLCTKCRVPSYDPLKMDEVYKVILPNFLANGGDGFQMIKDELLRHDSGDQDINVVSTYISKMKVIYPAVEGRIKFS
Description: CD73 Enzyme Assay (EnzChek PNP/MESG kinetic readout of AMP hydrolysis). In kind it is biochemical. The protocol:
A compound of the present disclosure (5 μL) was transferred to a 384-well assay plate. The compound was added in a 15 point, 3-fold serial dilution (300 μM to 0.0002 μM) in DMSO. […] The plate was immediately placed in a plate reader (Synergy 2 or Spark 10), and a reading was taken every minute for 10 to 20 minutes in a kinetic run at 360 nm. The linear portion of the curve was used to determine the observed rate (initial velocity). Low signal controls containing 100 μM adenosine 5′-(α,β-methylene) diphosphate and high signal controls containing no compound were measured for each plate.
IC50 values were calculated using Dotmatics template equation for 4-parameter fit. Results are expressed as % inhibition using the following equation: […]

The target of experiment [2] is T2, CD73 on U138 human neuroglioma cells (Homo sapiens, UniProt P21589).
T2 construct: U138 cells were obtained from ATCC and cultured in DMEM with 10% FBS; host or cells: U138 human neuroglioma cells
T2 sequence (P21589 27-549): T1 sequence (P21589 27-549)
Description: CD73 Cell-Based Assay (inorganic phosphate from AMP, malachite green). As to conditions: AMP substrate, 2 hours at 37° C. The protocol:
U138 human neuroglioma cells were used in these experiments. U138 cells were obtained from ATCC and cultured in DMEM with 10% FBS. 2500 cells were seeded into 96-well plate with 100 μL of media the day before the experiment. […] After washing, 100 μL of buffer was added to each well, then 100 μL of a mixture of AMP substrate (200 μM) and diluted compound was added to each well. The cells were incubated at 37° C. (with 5% CO2) for 2 hours. 50 μL of supernatant was transferred to a 96-well assay plate and the concentration of inorganic phosphate was determined using malachite green reagent (R&D System; Cat: DY996).

Where [3] appears, read: 0.25 nM hCD73, 25 μM AMP, read-out: CD73 Enzyme Assay IC50.
The mark [4] stands for this setting: read-out: CD73 Cell-Based assay IC50.

Regarding `N#Cc1c(Cl)nc2c(ccn2[C@@H]2O[C@H](COCP(=O)(O)O)[C@@H](O)[C@H]2O)c1NC1CC(F)(F)C1` [Compound 10], the pIC50 in experiment [1] (setting [3]) and in experiment [2] (setting [4]) was > 8.00 each time.
For the compound `N#Cc1c(Cl)nc2c(ccn2[C@@H]2O[C@H](COP(=O)(O)CP(=O)(O)O)[C@@H](O)[C@H]2O)c1N1CC2CCCC2C1` (stereo partly drawn) [Compound 43], the pIC50 in experiment [1] (setting [3]) and in experiment [2] (setting [4]) was > 8.00 each time.
Take `N#Cc1c(Cl)nc2c(ccn2[C@@H]2O[C@H](CS(=O)(=O)CP(=O)(O)O)[C@@H](O)[C@H]2O)c1N1CC2CCCC2C1` (stereo partly drawn) [Compound 21]: the pIC50 in experiment [1] (setting [3]) and in experiment [2] (setting [4]) was > 8.00 in each case.
Take `C[C@@H](Nc1c(C#N)c(Cl)nc2c1ncn2[C@@H]1O[C@H](COP(=O)(O)CP(=O)(O)O)[C@@H](O)[C@H]1O)c1ccc(C#N)cc1` [Compound 226]: the pIC50 in experiment [1] (setting [3]) and in experiment [2] (setting [4]) was > 8.00 each time.
As for `N#Cc1nc2c(ccn2[C@@H]2O[C@H](COP(=O)(O)CP(=O)(O)O)[C@@H](O)[C@H]2O)c(NC2CC3(CC3)C2)c1Cl` [Compound 206], the pIC50 in experiment [1] (setting [3]) and in experiment [2] (setting [4]) was > 8.00 throughout.
For `N#Cc1c(Cl)nc2c(ccn2[C@@H]2O[C@H](CS(=O)(=O)CP(=O)(O)O)[C@@H](O)[C@H]2O)c1NC1CCCC1` [Compound 25, (((((2S,3S,4R,5R)-5-(6-chloro-5-cyano-4-(cyclopentylamino)-1H-pyrrolo[2,3-b]pyridin-1-yl)-3,4-dihydroxytetrahydrofuran-2-yl)methyl)sulfonyl)methyl)phosphonic acid], the pIC50 in experiment [1] (setting [3]) is > 8.00; in experiment [2] (setting [4]), > 8.00; in experiment [2] (read-out: IC50), 10.00.
Consider `N#Cc1c(Cl)nc2c(ccn2[C@@H]2O[C@H](COCP(=O)(O)O)[C@@H](O)[C@H]2O)c1N[C@H]1CCC(F)(F)C1` [Compound 4], for which the pIC50 in experiment [1] (setting [3]) and in experiment [2] (setting [4]) was > 8.00 in each case.
Turning to `N#Cc1c(Cl)nc2c(ccn2[C@@H]2O[C@H](COP(=O)(O)CP(=O)(O)O)[C@@H](O)[C@H]2O)c1NC1CC2CC2C1` (stereo partly drawn) [Compound 28], the pIC50 in experiment [1] (setting [3]) and in experiment [2] (setting [4]) was > 8.00 each time.
Regarding `N#Cc1c(Cl)nc2c(ccn2[C@@H]2O[C@H](COCP(=O)(O)O)[C@@H](O)[C@H]2O)c1N1CCC(F)(F)C1` [Compound 13, ((((2R,3S,4R,5R)-5-(6-chloro-5-cyano-4-(3,3-difluoropyrrolidin-1-yl)-1H-pyrrolo[2,3-b]pyridin-1-yl)-3,4-dihydroxytetrahydrofuran-2-yl)methoxy)methyl)phosphonic acid], the pIC50 in experiment [1] (setting [3]) and in experiment [2] (setting [4]) was > 8.00 throughout.
As to `N#Cc1c(Cl)nc2c(ccn2[C@@H]2O[C@H](COP(=O)(O)CP(=O)(O)O)[C@@H](O)[C@H]2O)c1N1CCC(F)(F)C1` [Compound 37], the pIC50 in experiment [1] (setting [3]) and in experiment [2] (setting [4]) was > 8.00 in each case.
`C[C@H](Nc1c(C#N)c(Cl)nc2c1ccn2[C@@H]1O[C@H](COP(=O)(O)CP(=O)(O)O)[C@@H](O)[C@H]1O)c1ccc(F)cc1` [Compound 35]: the pIC50 in experiment [1] (setting [3]) and in experiment [2] (setting [4]) was > 8.00 each time.
In the case of `N#Cc1c(Cl)nc2c(ccn2[C@@H]2O[C@H](COCP(=O)(O)O)[C@@H](O)[C@H]2O)c1N1CC2CC2C1` (stereo partly drawn) [Compound 12], the pIC50 in experiment [1] (setting [3]) and in experiment [2] (setting [4]) was > 8.00 throughout.
In the case of `C[C@@H](Nc1c(C#N)c(Cl)nc2c1ncn2[C@@H]1O[C@H](COP(=O)(O)CP(=O)(O)O)[C@@H](O)[C@H]1O)c1ccc(F)cn1` [Compound 225], the pIC50 in experiment [1] (setting [3]) and in experiment [2] (setting [4]) was > 8.00 throughout.
Regarding `C[C@@H](Nc1c(C#N)c(Cl)nc2c1ncn2[C@@H]1O[C@H](COP(=O)(O)CP(=O)(O)O)[C@@H](O)[C@H]1O)c1ccc(F)cc1` [Compound 214], the pIC50 in experiment [1] and in experiment [2] (setting [4]) was > 8.00 each time.
Regarding `C[C@H](Nc1c(C#N)c(Cl)nc2c1cnn2[C@@H]1O[C@H](CS(=O)(=O)CP(=O)(O)O)[C@@H](O)[C@H]1O)c1ccc(F)cc1` [Compound 184, (((((2S,3S,4R,5R)-5-(6-chloro-5-cyano-4-(((S)-1-(4-fluorophenyl)ethyl)amino)-1H-pyrazolo[3,4-b]pyridin-1-yl)-3,4-dihydroxytetrahydrofuran-2-yl)methyl)sulfonyl)methyl)phosphonic acid], the pIC50 in experiment [1] (setting [3]) and in experiment [2] (setting [4]) was > 8.00 in each case.
With `N#Cc1c(Cl)nc2c(cnn2[C@@H]2O[C@H](COP(=O)(O)CP(=O)(O)O)[C@@H](O)[C@@H]2F)c1N1CCC(F)(F)C1` [Compound 95, (((((2R,3R,4S,5R)-5-(6-chloro-5-cyano-4-(3,3-difluoropyrrolidin-1-yl)-1H-pyrazolo[3,4-b]pyridin-1-yl)-4-fluoro-3-hydroxytetrahydrofuran-2-yl)methoxy)(hydroxy)phosphoryl)methyl)phosphonic acid], the pIC50 in experiment [1] (setting [3]) and in experiment [2] (setting [4]) was > 8.00 throughout.
With `N#Cc1c(Cl)nc2c(cnn2[C@@H]2O[C@H](CS(=O)(=O)CP(=O)(O)O)[C@@H](O)[C@H]2O)c1N1CCC(F)(F)C1` [Compound 119, (((((2S,3S,4R,5R)-5-(6-chloro-5-cyano-4-(3,3-difluoropyrrolidin-1-yl)-1H-pyrazolo[3,4-b]pyridin-1-yl)-3,4-dihydroxytetrahydrofuran-2-yl)methyl)sulfonyl)methyl)phosphonic acid], the results for the pIC50 in experiment [1] (setting [3]) and in experiment [2] (setting [4]) were 7.00 to 8.00 and > 8.00, respectively.
For `N#Cc1c(Cl)nc2c(c(F)cn2[C@@H]2O[C@H](CS(=O)(=O)CP(=O)(O)O)[C@@H](O)[C@H]2O)c1NC1CC(F)(F)C1` [Compound 162] the same measures were > 8.00 and > 8.00.
Consider `O=P(O)(O)CS(=O)(=O)C[C@H]1O[C@@H](n2ccc3c(NC4CCCC4)cc(Cl)nc32)[C@H](O)[C@@H]1O` [Compound 323], for which the pIC50 in experiment [1] (setting [3]) was > 8.00; in experiment [2] (setting [4]) it was > 8.00; in experiment [2] (read-out: IC50) it was 8.85.
In the case of `N#Cc1c(Cl)nc2c(ncn2[C@@H]2O[C@H](COP(=O)(O)CP(=O)(O)O)[C@@H](O)[C@H]2O)c1NC1CCCC1` [Compound 209], the pIC50 in experiment [1] (setting [3]) and in experiment [2] (setting [4]) was > 8.00 in each case.
For the compound `N#Cc1c(Cl)nc2c(ncn2[C@@H]2O[C@H](COCP(=O)(O)O)[C@@H](O)[C@H]2O)c1N1CC[C@@H](F)C1` [Compound 83], the pIC50 in experiment [1] (setting [3]) and in experiment [2] (setting [4]) was > 8.00 each time.
Regarding `N#Cc1c(Cl)nc2c(cnn2[C@@H]2O[C@H](COCP(=O)(O)O)[C@@H](O)[C@H]2O)c1NC1CC(F)C1` (stereo partly drawn) [Compound 89], the pIC50 in experiment [1] (setting [3]) and in experiment [2] (setting [4]) was > 8.00 throughout.
For the compound `C[C@H](Nc1c(C#N)c(Cl)nc2c1ccn2[C@@H]1O[C@H](COP(=O)(O)CP(=O)(O)O)[C@@H](O)[C@@H]1F)c1ccc(C#N)cc1` [Compound 230], the pIC50 in experiment [1] (setting [3]) and in experiment [2] (setting [4]) was > 8.00 each time.
On to `C[C@H](Nc1c(C#N)c(Cl)nc2c1ccn2[C@@H]1O[C@H](COP(=O)(O)CP(=O)(O)O)[C@@H](O)[C@@H]1F)c1ccc(F)cc1` [Compound 241], for which the pIC50 in experiment [1] (setting [3]) and in experiment [2] (setting [4]) was > 8.00 each time.
As for `C[C@H](Nc1c(C#N)c(Cl)nc2c1ccn2[C@@H]1O[C@H](COCP(=O)(O)O)[C@@H](O)[C@H]1O)c1ccc(F)cc1` [Compound 8], the pIC50 in experiment [1] (setting [3]) and in experiment [2] (setting [4]) was > 8.00 throughout.
Turning to `N#Cc1c(Cl)nc2c(ncn2[C@@H]2O[C@H](COP(=O)(O)CP(=O)(O)O)[C@@H](O)[C@H]2O)c1N1CC2CC2C1` (stereo partly drawn) [Compound 63], the pIC50 in experiment [1] (setting [3]) and in experiment [2] (setting [4]) was > 8.00 each time.

As usually defined, the pIC50 is −log10 of the IC50, conventionally taken in molar units.
